B1: TGF-β2: transforming growth factor, literature data (protein, UniProt P61812 303-414, looked up)
Transforming growth factor …: ALDAAYCFRNVQDNCCLRPLYIDFKRDLGWKWIHEPKGYNANFCAGACPYLWSSDTQHSRVLSLYNTINPEASASPCCVSQDLEPLTILYYIGKTPKIEQLSNMIVKSCKCS

Legend:
[1] = tested on: COVID-19-induced scalp alopecia (telogen effluvium); assay: Example 8: case study, COVID-19-induced telogen effluvium; assay type: in vivo, human; conditions: same patient; minoxidil and LED light treatment (Hairmax)
Experimental: COVID-19-induced scalp Alopecia can induce telogen effluvium (TE) which refers to diffuse scalp alopecia. A patient with severe chronic TE with no spontaneous recovery after 6 months of hair loss and no response to conventional treatment of minoxidil and LED light treatment (Hairmax) was treated with a composition comprising conditioned medium derived from cultivation of mesenchymal stem cells of the umbilical cord (CALECIM® Advanced Hair System).
The scalp of the patient was progressively treated with rubbing with an alcohol swab, then 1 ml of a composition comprising conditioned medium derived from cultivation of mesenchymal stem cells of the umbilical cord was applied and massaged in till dry. The patient was advised to wait until evening to wash their hair. Five treatments of conditioned medium derived from cultivation of mesenchymal stem cells of the umbilical cord spaced a month apart were administered.

[2] = tested on: human follicle dermal papilla cells (HFDPC); assay: growth promotion on cultured human follicle dermal papilla cells (WST-8); assay type: cell-based
Text: Hair growth is controlled by a unique repetitive cycle comprised of anagen, catagen and telogen phases. Dermal papilla cells (DPCs), a group of specialized fibroblasts within the hair follicle bulb, have an essential function in the control of hair growth not only in the normal hair cycle but also in the pathogenesis of certain conditions, for example in androgenetic alopecia. Therefore, factors affecting the functions of DPCs in hair loss are of great importance from the therapeutic viewpoint. […] HFDPCs are either treated with different concentrations of Minodixil (0.0125-200 μg/mL; see Table 3, left column, serving as the reference) or conditioned medium of the invention at different dilutions (PC, dilution range from 10-1280 times; see third column of Table 3). The negative control (NC) refers to HFDPCs incubated with basal medium only. All data are shown as the mean±standard deviation (SD). For comparison of different treatments between 2 groups, the Student's t test was used. p<0.05 was considered significant, p<0.01 would normally be considered highly significant, and p<0.001 extremely significant. After calculation, p is 0.03.

elastin mRNA in HDFs = conditions: 24 hours, 1 ng/ml; cited from earlier work

Molecule | response to conventional treatment before the study treatment [1] | cell count of HFDPC (% of control) ([2]; Minoxidil 0.0125 ug/mL) | cell count of HFDPC (% of control) ([2]; Minoxidil 0.025 ug/mL) | cell count of HFDPC (% of control) ([2]; Minoxidil 0.05 ug/mL) | cell count of HFDPC (% of control) ([2]; Minoxidil 0.1 ug/mL) | cell count of HFDPC (% of control) ([2]; Minoxidil 0.2 ug/mL) | cell count of HFDPC (% of control) ([2]; Minoxidil 2 ug/mL) | cell count of HFDPC (% of control) ([2]; Minoxidil 20 ug/mL) | cell count of HFDPC (% of control) ([2]; Minoxidil 200 ug/mL) | more cells compared to negative control ([2]; diluted 320 times) | maximum increase of elastin mRNA steady-state levels (elastin mRNA in HDFs) [fold]
Nc1cc(N2CCCCC2)nc(N)[n+]1[O-] [Minoxidil] | no response | 94 ± 0.6 % of control | 92.2 ± 1.4 % of control | 120.8 ± 4.8 % of control | 120.8 ± 8.8 % of control | 123.2 ± 8.4 % of control | 124.5 ± 10.2 % of control | 98.5 ± 7.7 % of control | 43 ± 2.6 % of control | around 20% | –
TGF-β1: transforming growth factor, literature data | – | – | – | – | – | – | – | – | – | – | 30
B1 | – | – | – | – | – | – | – | – | – | – | 30

Reference: patent US20260191766A1, “USE OF CONDITIONED MEDIUM DERIVED FROM CULTIVATION OF MESENCHYMAL STEM CELLS OF THE UMBILICAL CORD FOR INDUCING, STIMULATING AND PROMOTING HAIR GROWTH AND REGENERATION” (CELLRESEARCH CORPORATION PTE. LTD., priority 2022, published 2026)
